Measured values: article PMC3573263 (Chemical biology & drug design, 2013)
pKd: −log10 of the molar value.

What was measured:
wild-type YopH = wild-type YopH (Yersinia pestis, UniProt O68720); experiment: biochemical; format: binding
YopH [1] = biological target: T1, YopH (Yersinia pestis, UniProt O68720); conditions: cited from earlier work
[2] = biological target: YopH N-terminus (Yersinia pestis) (UniProt P08538); experiment: NMR; conditions: cited from earlier work
YopH [3] = biological target: T1, YopH
N-terminus of YopH = conditions: read-out: equilibrium dissociation constant; cited from earlier work

Chain of wild-type YopH (O68720 164-468 limits assumed): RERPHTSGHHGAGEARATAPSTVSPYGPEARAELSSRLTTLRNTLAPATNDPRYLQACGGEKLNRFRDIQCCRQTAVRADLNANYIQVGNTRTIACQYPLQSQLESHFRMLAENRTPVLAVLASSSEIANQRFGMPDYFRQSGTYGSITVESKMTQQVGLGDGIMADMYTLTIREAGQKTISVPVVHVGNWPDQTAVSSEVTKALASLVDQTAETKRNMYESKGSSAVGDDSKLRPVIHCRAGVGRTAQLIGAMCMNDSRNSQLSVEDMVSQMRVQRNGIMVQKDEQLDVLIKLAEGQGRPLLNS
T1 sequence (O68720 164-468 limits assumed): as above
Chain of YopH N-terminus (Yersinia pestis) (P08538 1-129): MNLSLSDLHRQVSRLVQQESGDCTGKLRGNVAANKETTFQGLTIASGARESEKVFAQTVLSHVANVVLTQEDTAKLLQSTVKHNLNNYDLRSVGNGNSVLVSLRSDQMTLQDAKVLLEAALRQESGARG

O=C(O)c1ccc(/C=N/OCc2ccc(-c3cccc(C(F)(F)P(=O)(O)O)c3)cc2)o1 [compound 3, 5-((1E)-(((4-(3-(difluoro(phosphono)methyl)phenyl)phenyl)methoxy)imino)methyl)furan-2-carboxylic acid]
pKd (wild-type YopH): 3.62
koff (wild-type YopH): 0.945 (0.13)
kon (wild-type YopH): 44.5 M⁻¹ s⁻¹

(difluoro((3-(4-((((E)-furan-2-ylmethylidene)amino)oxy)methyl)phenyl)phenyl))methyl) phosphonic acid [compound 2]
koff (wild-type YopH): 2.15 (0.89)
ΔG (wild-type YopH): −5.28 (0.20) kcal/ mol

O=[N+]([O-])c1ccc(OP(=O)(O)O)cc1 [pNPP, para-nitrophenylphosphate]
catalytic activity of YopH toward substrate, lower than the pTyr-containing peptide (YopH [1]): 1300 fold

EGFR phosphopeptide (from UniProt P00533)
pKd [2]: 5.00

(difluoro((3-(4-((((E)-furan-3-ylmethylidene)amino)oxy)methyl)phenyl)phenyl))methyl) phosphonic acid [compound 1]
koff (wild-type YopH): 1.95 (0.95)
kon (wild-type YopH): 73.4 (34.8) 1/Ms
ΔG (wild-type YopH): −4.88 (0.43) kcal/ mol
inhibition of PTPase activity on microarrayed pTyr-EGFR peptide (in words) (YopH [3]): dose-response relationship

DADEpYL [hexapeptide]
pKd (N-terminus of YopH): 5.00

N[C@@H](Cc1ccc(OP(=O)(O)O)cc1)C(=O)O [L-phosphotyrosine, reference compound]
pKd (wild-type YopH): 1.61
koff (wild-type YopH): 0.679
kon (wild-type YopH): 0.278 M⁻¹ s⁻¹
ΔG (wild-type YopH): -2.2 kcal/mol

DADE-pYLIPQQG
rate constant for dephosphorylation (YopH [1]): 2.23e+07 M⁻¹ s⁻¹
